Results published in patent US20080214606A1, “Methods for the Identification and Use of Compounds Suitable for the Treatment of Drug Resistant Cancer Cells” (The Government of the United States of America as …, priority 2004, published 2008).

Key:
ABCD1 = molecular target: T1, ABCD1 (Homo sapiens, UniProt P33897); test: Correlation of ABCD1 expression with drug sensitivity across the NCI-60; type: cell-based; settings: Pearson correlation of ABCD1 expression with sensitivity of the 60 cell lines; 1429 compounds; inverse, p < 0.0001
T1 construct: profiled in 60 diverse cancer cell lines (the NCI-60) using real-time RT-PCR; endogenous in cells; host or cells: NCI-60 human cancer cell lines
T1 sequence (P33897 whole entry): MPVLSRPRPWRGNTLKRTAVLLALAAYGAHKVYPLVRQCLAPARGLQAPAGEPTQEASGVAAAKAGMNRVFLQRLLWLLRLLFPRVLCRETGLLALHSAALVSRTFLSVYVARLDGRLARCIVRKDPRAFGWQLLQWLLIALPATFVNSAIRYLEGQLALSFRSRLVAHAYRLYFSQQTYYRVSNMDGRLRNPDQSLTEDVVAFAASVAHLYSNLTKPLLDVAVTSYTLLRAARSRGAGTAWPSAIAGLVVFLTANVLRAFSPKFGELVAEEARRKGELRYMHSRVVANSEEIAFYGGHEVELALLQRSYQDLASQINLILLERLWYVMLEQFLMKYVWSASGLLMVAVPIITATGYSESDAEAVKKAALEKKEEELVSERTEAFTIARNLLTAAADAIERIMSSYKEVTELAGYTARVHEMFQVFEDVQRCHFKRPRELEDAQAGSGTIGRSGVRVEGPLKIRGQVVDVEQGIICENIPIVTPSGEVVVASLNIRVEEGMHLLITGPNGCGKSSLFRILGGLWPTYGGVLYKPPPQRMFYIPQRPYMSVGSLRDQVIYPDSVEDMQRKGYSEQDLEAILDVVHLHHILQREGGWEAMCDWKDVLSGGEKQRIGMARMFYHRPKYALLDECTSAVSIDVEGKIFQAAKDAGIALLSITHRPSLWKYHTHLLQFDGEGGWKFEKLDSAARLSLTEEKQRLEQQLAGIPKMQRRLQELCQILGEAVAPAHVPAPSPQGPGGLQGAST
Protocol: (§1) Expression levels are measured by real-time quantitative RT-PCR using the LightCycler RNA Amplification SYBR Green kit and a LightCycler machine (Roche Biochemicals, Indianapolis, Ind.). […] When possible, the amplicons are designed to encompass exon-intron boundaries to avoid amplification of genomic DNA. Since the Syber Green assay detects accumulation of double stranded DNA, primers are selected (from a battery consisting of about 200 primers) that amplified a single product of the correct size.
(§2) During PCR amplification, fluorescence emission is measured and recorded in real time by the LightCycler. Crossing point values are calculated, using the LightCycler software package, by the Fit Points analysis method, with baseline fluorescence set at 1. The SyberGreen assay measures accumulation of double-stranded products, and the appearance of primer dimers limits quantitation at high cycle numbers. The specificity of amplified products is verified by melting-curve analysis and agarose gel electrophoresis (not shown). The raw results are expressed as number of cycles to reach the crossing point. If the desired product is not detected, the corresponding value is adjusted to crossing points indicating no expression. To assess the contribution of experimental artifacts, selected cell lines are assessed in replicate.

ABCC2 = molecular target: T2, ABCC2 (Homo sapiens, UniProt Q92887); test: Correlation of ABCC2 expression with drug sensitivity across the NCI-60; type: cell-based; settings: Pearson correlation of ABCC2 expression with sensitivity of the 60 cell lines; 1429 compounds; inverse, p < 0.0001
T2 construct: profiled in 60 diverse cancer cell lines (the NCI-60) using real-time RT-PCR; endogenous in cells; host or cells: NCI-60 human cancer cell lines
T2 sequence (Q92887 whole entry): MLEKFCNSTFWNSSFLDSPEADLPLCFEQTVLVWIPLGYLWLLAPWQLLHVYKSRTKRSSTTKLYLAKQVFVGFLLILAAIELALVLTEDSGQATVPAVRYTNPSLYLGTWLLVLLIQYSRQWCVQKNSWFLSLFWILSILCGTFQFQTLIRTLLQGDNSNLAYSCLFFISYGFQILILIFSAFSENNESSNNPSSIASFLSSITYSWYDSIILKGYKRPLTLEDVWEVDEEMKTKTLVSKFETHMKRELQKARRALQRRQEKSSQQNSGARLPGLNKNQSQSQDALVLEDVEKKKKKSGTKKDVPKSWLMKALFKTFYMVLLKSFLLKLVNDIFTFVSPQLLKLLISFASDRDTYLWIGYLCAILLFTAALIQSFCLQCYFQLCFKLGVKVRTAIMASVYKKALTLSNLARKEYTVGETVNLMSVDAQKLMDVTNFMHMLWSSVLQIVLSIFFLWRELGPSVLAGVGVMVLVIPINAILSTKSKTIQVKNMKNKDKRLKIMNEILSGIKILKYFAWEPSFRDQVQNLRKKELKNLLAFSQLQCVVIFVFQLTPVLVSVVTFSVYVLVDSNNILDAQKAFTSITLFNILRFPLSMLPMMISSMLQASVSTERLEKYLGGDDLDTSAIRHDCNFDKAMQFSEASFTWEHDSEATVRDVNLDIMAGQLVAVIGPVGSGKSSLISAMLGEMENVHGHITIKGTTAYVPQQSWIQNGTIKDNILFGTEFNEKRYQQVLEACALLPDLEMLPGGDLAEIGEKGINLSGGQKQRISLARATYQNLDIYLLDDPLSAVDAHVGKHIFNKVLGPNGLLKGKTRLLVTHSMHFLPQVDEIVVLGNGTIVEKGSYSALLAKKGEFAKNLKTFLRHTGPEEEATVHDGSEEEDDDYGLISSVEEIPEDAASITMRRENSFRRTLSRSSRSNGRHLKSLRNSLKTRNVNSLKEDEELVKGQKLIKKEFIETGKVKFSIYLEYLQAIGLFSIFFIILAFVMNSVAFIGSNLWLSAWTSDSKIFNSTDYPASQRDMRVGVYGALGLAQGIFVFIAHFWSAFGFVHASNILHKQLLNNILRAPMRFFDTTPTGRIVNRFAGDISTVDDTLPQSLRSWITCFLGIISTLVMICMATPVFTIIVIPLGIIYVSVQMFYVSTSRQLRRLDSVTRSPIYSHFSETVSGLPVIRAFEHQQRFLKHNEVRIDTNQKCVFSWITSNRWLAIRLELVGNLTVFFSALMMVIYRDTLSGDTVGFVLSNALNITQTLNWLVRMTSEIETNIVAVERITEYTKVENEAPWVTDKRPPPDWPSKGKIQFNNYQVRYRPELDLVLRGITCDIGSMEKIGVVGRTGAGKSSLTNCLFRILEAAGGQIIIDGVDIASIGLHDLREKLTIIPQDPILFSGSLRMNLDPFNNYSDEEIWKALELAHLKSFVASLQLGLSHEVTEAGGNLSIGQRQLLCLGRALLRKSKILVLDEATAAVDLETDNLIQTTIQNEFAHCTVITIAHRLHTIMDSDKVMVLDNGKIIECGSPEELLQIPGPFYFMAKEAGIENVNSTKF
Protocol: as §1, §2

ABCB1 = ABCB1 (Homo sapiens, UniProt P08183); test: Correlation of ABCB1 expression with drug sensitivity across the NCI-60
Sequence of ABCB1 (P08183 whole entry): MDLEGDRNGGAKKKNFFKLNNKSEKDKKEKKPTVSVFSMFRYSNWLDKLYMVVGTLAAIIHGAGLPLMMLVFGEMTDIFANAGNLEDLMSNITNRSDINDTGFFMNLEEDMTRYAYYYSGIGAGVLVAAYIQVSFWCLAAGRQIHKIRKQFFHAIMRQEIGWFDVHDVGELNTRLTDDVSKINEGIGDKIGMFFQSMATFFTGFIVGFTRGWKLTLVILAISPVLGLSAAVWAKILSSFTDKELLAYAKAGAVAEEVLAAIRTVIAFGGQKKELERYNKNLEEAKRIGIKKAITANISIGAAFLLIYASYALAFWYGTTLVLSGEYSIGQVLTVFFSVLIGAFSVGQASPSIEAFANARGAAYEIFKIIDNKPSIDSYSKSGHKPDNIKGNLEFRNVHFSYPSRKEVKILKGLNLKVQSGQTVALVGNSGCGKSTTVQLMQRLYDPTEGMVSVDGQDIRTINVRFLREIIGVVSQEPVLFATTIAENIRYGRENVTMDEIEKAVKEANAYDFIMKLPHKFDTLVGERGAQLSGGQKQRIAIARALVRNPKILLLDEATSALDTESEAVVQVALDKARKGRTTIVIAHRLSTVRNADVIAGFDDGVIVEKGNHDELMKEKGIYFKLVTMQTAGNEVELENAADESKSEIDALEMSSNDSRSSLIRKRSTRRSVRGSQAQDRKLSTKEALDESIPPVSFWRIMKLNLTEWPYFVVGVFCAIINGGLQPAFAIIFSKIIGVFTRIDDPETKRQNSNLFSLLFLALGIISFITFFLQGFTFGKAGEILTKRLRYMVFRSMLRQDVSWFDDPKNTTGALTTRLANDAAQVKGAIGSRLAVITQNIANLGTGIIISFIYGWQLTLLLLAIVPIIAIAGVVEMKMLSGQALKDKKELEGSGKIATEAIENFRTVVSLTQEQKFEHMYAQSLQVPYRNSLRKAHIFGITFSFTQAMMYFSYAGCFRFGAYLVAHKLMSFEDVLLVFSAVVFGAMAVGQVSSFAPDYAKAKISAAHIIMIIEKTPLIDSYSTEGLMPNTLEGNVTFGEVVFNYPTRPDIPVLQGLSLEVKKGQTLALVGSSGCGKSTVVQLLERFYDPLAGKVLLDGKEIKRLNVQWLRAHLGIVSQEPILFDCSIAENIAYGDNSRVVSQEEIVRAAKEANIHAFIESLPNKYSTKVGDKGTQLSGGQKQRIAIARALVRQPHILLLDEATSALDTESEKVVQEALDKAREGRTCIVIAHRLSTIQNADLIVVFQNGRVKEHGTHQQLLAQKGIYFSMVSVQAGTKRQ
Protocol: Expression levels are measured by real-time quantitative RT-PCR using the LightCycler RNA Amplification SYBR Green kit and a LightCycler machine (Roche Biochemicals, Indianapolis, Ind.). Specific oligonucleotide probes are designed for each of the ABC transporters using DNAStar Primer Select (DNASTAR Inc.), and they may be synthesized at Lofstrand Laboratories (Gaithersburg, Md.). When possible, the amplicons are designed to encompass exon-intron boundaries to avoid amplification of genomic DNA. Since the Syber Green assay detects accumulation of double stranded DNA, primers are selected (from a battery consisting of about 200 primers) that amplified a single product of the correct size.
RT-PCR is carried out on 150 ng total RNA, in the presence of 250 nM specific primers. Following reverse transcription (20 min at 50° C.), the PCR reaction consists of 45 cycles of denaturation (15 sec at 95° C.), annealing (30 sec at 58° C.), and elongation (30 sec at 72° C.). No-template (water) reaction mixtures are prepared as negative controls.
During PCR amplification, fluorescence emission is measured and recorded in real time by the LightCycler. Crossing point values are calculated, using the LightCycler software package, by the Fit Points analysis method, with baseline fluorescence set at 1. The SyberGreen assay measures accumulation of double-stranded products, and the appearance of primer dimers limits quantitation at high cycle numbers. […] The raw results are expressed as number of cycles to reach the crossing point. If the desired product is not detected, the corresponding value is adjusted to crossing points indicating no expression. To assess the contribution of experimental artifacts, selected cell lines are assessed in replicate.
Both sets are available at http://discover.nci.nih.gov. The two are combined to form a joint dataset that includes 1429 compounds.
To determine quantitatively how well the 47 genes cluster the cell lines by their tissues of origin, a statistical method is employed wherein the kappa statistic is used to indicate how well the observed clusters correspond to the nine tissue-of-origin classifications. […] To control the overall false type 1 error rate, both a step-down procedure (Westfall and Young, 1993, Resampling-Based Multiple Testing: Examples and Methods for p-value Adjustment (New York: Wiley)) and a step-up procedure (Reiner et al., 2003, Bioinformatics 19:368-375) were employed to adjust for multiple testing of all 47 genes simultaneously. In the Benjamini-Hochberg procedure the p-values are computed in the standard way by permutation, assuming that all distributions are exchangeable: the number of values in the permuted data with correlations over a threshold, divided by the number of compounds and by the number of permutations. In this analysis, the False Discovery Rate (q-value) at which each compound would be declared was calculated using the step-up procedure for positively correlated test statistics (again true because all correlations being compared are computed against the same ABC gene): in this procedure the first q-value for the largest correlation is the Bonferroni-corrected p-value for that gene; then further q-values are calculated as qj=max(pj*1429/j, qj-1). This procedure limits the expected proportion of false positives in the list 1, . . . , j to at most qj.

[1] = test system: KB-V1 cells (over-express MDR1-P-gp) vs parental KB-3-1 cells; test: MTT assay using the KB-3-1/KB-V1 cell pair; type: cell-based, human
Protocol: Cell survival is measured by the MTT (3-(4,5-Dimethylthiazol-2-yl)-2,5-diphenyltetrazolium) Assay. Cells are seeded in 100 μl medium at a density of 5000 cells/well in 96 well plates, and serially diluted drug (with or without 2 μM PSC 833) is added the following day in 100 μl medium to give the indicated final concentration. Cells are then incubated for 72 hrs at 37° C. in 5% CO2, and the MTT assay is performed according to the manufacturer's instructions (Molecular Probes, Eugene, Oreg.).
To test whether our approach using the NCI-60 does, in fact, identify new substrates, an MTT assay is used to test all top-scoring compounds that were available from DTP for follow-up experiments. KB-3-1, a human carcinoma cell line, and KB-V1, a multidrug resistant derivative of KB-3-1 that over-expresses MDR1-P-gp (Shen et al., 1986, J. Biol. Chem. 261:7762-7770), are used for the tests. […] This resistance of KB-V-1 cells is invariably reversible by PSC 833. The intrinsic fluorescence of one of the compounds, NSC 634791, allows for the measurement of the effect of MDR1 activity on its export from cells.

Nc1nc(=S)c2ncn(C3CC(O)C(CO)O3)c2[nH]1 (centres unmarked) [NSC 71851]
Correlation (ABCD1): −0.4425

Cc1ccc(C2=CC(=O)/C(=C\C(=O)c3ccc(Br)cc3)O2)c(C)c1 [NSC 674919]
Correlation (ABCC2): −0.4608

CCOC(=O)c1oc2cc3c(c4c2c1-c1ccccc1N4C)C=CC(C)(C)O3 [NSC 693215]
Correlation (ABCC2): −0.4377

CC(C)Cc1ccc(C(C)/C=C2\CCC(CN3CCOCC3)C2=O)cc1.Cl (centres unmarked) [NSC 639976]
Correlation (ABCC2): −0.4670

CN(C)CCCNc1ccc2c(=O)n(CCN(C)C)c(=O)n3c4ccccc4c(=O)c1c23 [NSC 687308]
Correlation (ABCD1): −0.4236

CCN(CC)CCCNc1ccc2nnn3c4ccc(O)cc4c(=O)c1c23 [NSC 645814]
Correlation (ABCD1): −0.4346

COC(=O)[C@@]12C(=O)C=CC(=O)[C@@H]1C1C(=CC2COC(C)=O)O[C@@H]2OC3(CCCCC3)O[C@H]12 (some centres unmarked) [NSC 637399]
Correlation (ABCC2): −0.4969

COc1cccc2c1C(=O)C=CC2=O [NSC 618315]
Correlation (ABCC2): −0.4247

COc1ccc2[nH]c3c(C)c4ccncc4c(C)c3c2c1 [NSC 69187]
Correlation (ABCD1): −0.5711

CN(C)CCCNc1ccc2nnn3c4ccc(O)cc4c(=O)c1c23 [NSC 645830]
Correlation (ABCD1): −0.4258

CCN(CC)CCn1ccc(=O)c2cc3c(=O)ccn(CCN(CC)CC)c3c(C)c21 [NSC 645161]
Correlation (ABCD1): −0.5134

CCCCCCOc1ccc(C(=O)NO)cc1 [NSC 692754]
Correlation (ABCD1): −0.4680
Correlation (ABCC2): −0.4016
Pearson's Correlation Coeff (ABCB1): 0.4616

Cc1c2ccncc2c(C)c2c1[nH]c1ccccc12 [NSC 71795]
Correlation (ABCD1): −0.4642

O=C1c2cccc(NCCNCCO)c2C(=O)c2cccc(NCCNCCO)c21 [NSC 363997]
Effect of PSC 833 on the resistance of KB-V1 cells ([1]; MTT assay with 2 μM PSC 833): reverses the resistance
Resistance of KB-V1 cells in comparison with the parental line ([1]; MTT assay, 72 hrs): resistant

CC(C)Cc1ccc(C(C)/C=C2\CCC(CN3CCCCC3)C2=O)cc1.Cl (centres unmarked) [NSC 639978]
Correlation (ABCC2): −0.5210

CC1=NN(c2nc(N)nc(CBr)n2)C(C)(C)C1 [NSC 696916]
Correlation (ABCC2): −0.4224

CC(C)OC(=O)c1ccc(CCC2=CC(=O)C=CC2=O)cc1 [NSC 684496]
Correlation (ABCC2): −0.4340

COc1ccc2c(c1)-c1nn(CCCN(C)C)c3ccc([N+](=O)[O-])c(c13)N2 [NSC 627168]
Correlation (ABCD1): −0.4599

CCCCCCOc1ccc(C(=O)N(C)O)cc1 [NSC 692758]
Correlation (ABCD1): −0.5012
Pearson's Correlation Coeff (ABCB1): 0.4825

O=c1cc(O)ccn1[C@@H]1O[C@H](CO)[C@@H](O)[C@H]1O [NSC 126849]
Correlation (ABCD1): −0.4214
Pearson's Correlation Coeff (ABCB1): 0.2357

COc1ccc2c(c1)c(=O)c1c(NCCCN(C)C)ccc3ncn2c31.Cl [NSC 645813]
Correlation (ABCD1): −0.4824

CCCCCCCCCCCCCC(=O)NO [NSC 634458]
Correlation (ABCC2): −0.4326

CCN(CC)CCCNc1ncc(C)c2c1c1ccc3c(O)cccc3c1n2C [NSC 653438]
Correlation (ABCD1): −0.4252

NC(=S)N=Nc1c(O)[nH]c2c(Cl)cc(Cl)cc12 [NSC 73305]
Effect of PSC 833 on the heightened sensitivity of KB-V1 cells ([1]; MTT assay with 2 μM PSC 833): completely reverses sensitivity
Sensitivity of KB-V1 cells relative to parental KB-3-1 (potentiation by ABCB1) ([1]; MTT assay, 72 hrs): several-fold more sensitive

COc1cc(/C=C2\CCC(CN(C)C)C2=O)ccc1OC(=O)c1ccccc1.Cl (centres unmarked) [NSC 639518]
Correlation (ABCC2): −0.4350

CCN(CC)CCNc1ccc2ncn3c4ccc(OC)cc4c(=O)c1c23 [NSC 645812]
Correlation (ABCD1): −0.4825

CN(C)CCC(=O)N1C/C(=C\c2ccc(Cl)c(Cl)c2)C(=O)/C(=C/c2ccc(Cl)c(Cl)c2)C1.Cl [NSC 638645]
Correlation (ABCC2): −0.5028

CC1(C)OC2C(CO[Si](C)(C)C(C)(C)C)OC(n3cnc4c(N)nc(C#C[Si](C)(C)C)nc43)C2O1 (centres unmarked) [NSC 687496]
Correlation (ABCC2): −0.4544

Cc1c2ccncc2c(C)c2c1[nH]c1ccc(OCCN(C)C)cc12 [NSC 338258]
Correlation (ABCD1): −0.5453

COc1ccc2cc(CNCCCCCCCCNCc3ccc4cc(OC)ccc4c3)ccc2c1 [NSC676427]
Pearson's Correlation Coeff (ABCB1): 0.1843

O=C1C=CC(=O)c2c(O)ccc(O)c21 [NSC26647]
Pearson's Correlation Coeff (ABCB1): 0.2476

CCc1nc(N)nc(N)c1-c1ccc2c(c1)nnn2CCc1ccccc1 [NSC382053]
Pearson's Correlation Coeff (ABCB1): 0.3841

CC(/C=N/NC(=S)N1CCCCC1)=N/NC(=S)N1CCCCC1 [NSC 693326]
Correlation of antiproliferative activity with ABCB1 expression (ABCB1): 0.3892

c1ccc2c(c1)Nc1cccc3c1c-2nc1ccccc13 [NSC 670692]
Correlation (ABCD1): −0.4001

CC(C)OC(=S)Nc1ccc(Cl)c(/C=N/OC(C)(C)C)c1 [NSC 645542]
Correlation of antiproliferative activity with ABCB1 expression (ABCB1): 0.3924

COc1cc2c(c(O)c1O)-c1ccc(OC)c(=O)cc1C(NC(C)=O)CC2 (centres unmarked) [NSC 354975]
Correlation (ABCB1): −0.6043

CC(=O)O[C@H]1C#C/C=C\C#CC[C@@H]2C(=O)N(C(=O)OC(C)(C)C)[C@@H]12 [NSC697686]
Pearson's Correlation Coeff (ABCB1): 0.2297

CCCOc1ccc(-c2nc(-c3ccc(N=Cc4ccc(N(CCOS(C)(=O)=O)CCOS(C)(=O)=O)cc4C)cc3)cs2)cc1 [NSC281818]
Pearson's Correlation Coeff (ABCB1): 0.2476

Cc1ccc2nc3c(C(=O)NCCN(C)C)cccc3cc2c1.Cl [NSC 617963]
Correlation of antiproliferative activity with ABCB1 expression (ABCB1): 0.5317

Cc1cc(C)c(C2=NO[C@@H]3[C@H]2C(=O)C=C2N(Cc4ccccc4)CCO[C@@]23O)c(C)c1 [NSC 627025]
Correlation of antiproliferative activity with ABCB1 expression (ABCB1): 0.3511

NC(=O)c1[nH]nc([C@@H]2O[C@H](CO)[C@@H](O)[C@H]2O)c1O [NSC 143095]
Correlation (ABCD1): −0.5337
Pearson's Correlation Coeff (ABCB1): 0.2763

O=C1/C(=C/c2ccc(F)cc2)CNC/C1=C\c1ccc(F)cc1 [NSC 685126]
Correlation (ABCD1): −0.4464

C(=N\NC1=NCCN1)/c1c2ccccc2c(/C=N/NC2=NCCN2)c2ccccc12 [bisantrene, reference compound]
Relationship between drug sensitivity and ABCB1 expression (in words) (ABCB1; set of 118 compounds with putatively known mechanisms of action, FIG. 2): striking inverse correlations

Cc1ccc2c(c1)-c1c(C#N)c(N)nc(-c3ccc(Cl)cc3)c1CCS2(=O)=O [NSC691578]
Pearson's Correlation Coeff (ABCB1): 0.2102

CCOc1cc2c(cc1O)C(=O)C[C@@H]1[C@@H]2CC[C@]2(C)[C@@H](O)CC[C@@H]12 [NSC679431]
Pearson's Correlation Coeff (ABCB1): 0.2672

CN(O)C(=O)c1ccc(OCc2cccc(Cl)c2)cc1 [NSC 692759]
Correlation (ABCD1): −0.5034
Pearson's Correlation Coeff (ABCB1): 0.4149

OCCOc1ccc(-c2cc(-c3ccccn3)nc(-c3ccccn3)c2)cc1 [NSC 640499]
Correlation (ABCD1): −0.4694

COC(=O)CN(CC(O)C(NC(C)=O)C(O)C=O)C(=O)OCc1ccccc1 (centres unmarked) [NSC 693931]
Correlation of antiproliferative activity with ABCB1 expression (ABCB1): 0.3708

Nc1ncnc2c1nc(Cl)n2[C@@H]1O[C@@H]2COP(=O)(O)O[C@H]2[C@H]1O [NSC284751]
Pearson's Correlation Coeff (ABCB1): 0.2759

CCc1nc(N)nc(N)c1-c1ccc(N(C)Cc2ccccc2)c([N+](=O)[O-])c1 [NSC382035]
Pearson's Correlation Coeff (ABCB1): 0.3180

[N-]=[N+]=CC(=O)OC1Cc2ccccc2C1 [NSC 679285]
Correlation of antiproliferative activity with ABCB1 expression (ABCB1): 0.3504
